Measurements taken from patent publication US20240000791A1, “Methods of Using 4-Amino-N-[4-(Methoxymethyl)Phenyl]-7-(1-Methylcyclopropyl)-6-(3-Morpholinoprop-1-YN-1-YL)-7H-Pyrrolo[2,3-D]Pyrimidine-5-Carboxamide for the Treatment of Tumors” (Helsinn Healthcare SA, priority 2020, published 2024).

Columns and labels:
[1] = test system: cell line harboring a KIF5B-RET fusion from a patient never treated with any anti-cancer therapy; test: Growth inhibition, treatment-naive patient-derived cell line; type: cell-based; settings: Homo sapiens
From the text: The efficacy of HM06/TAS0953 was examined in two cell lines derived from treatment-naïve samples. One of the cell lines was derived from a sample obtained from a patient who was never treated with any anti-cancer therapy, and which harbors a KIF5B-RET fusion.

[2] = test system: NIH3T3 cells harboring a KIF5B-RET Luc fusion; test: Brain metastasis model harboring a KIF5B-RET Luc fusion; type: in vivo, mouse
From the text: In this model, NIH3T3 cells harboring a KIF5B-RET Luc fusion (2.5×10^5 cells/mouse) were implanted to brain of athymic nude mice (Charles River Laboratories Japan) at a depth of 3 mm at a position 3-mm anterior and 2-mm right lateral to the lambda. […] The total flux (p/s) in the region of interest of the back and side of the mouse were quantified using Living Image software (PerkinElmer), respectively, and the total photons obtained by adding both of the total flux values were utilized as the luminescence signal. […] The luminescence signals of the mice were measured once a week until the end of the study.

[3] = 4-week GLP toxicity study in dog; type: in vivo
Experimental: In the 4-week GLP toxicity study in dog, animals received 0, 15, 30, and 45 mg/kg BID HM06-01/TAS0953-01 by oral gavage for 4 consecutive weeks followed by 2-week recovery period. In the high dose of 45 mg/kg BID group, test item-related mortality was observed: 2 males were prematurely sacrificed on Day 17 and Day 18 for ethical reasons (severe clinical signs associated with a significant body weight loss). The main cause of death was the mild to moderate multifocal subacute inflammation with alveolar or bronchioalveolar distribution, accompanied in one male with alveolar foreign body granulomas. In the other male, minimal pancreatic acinar vacuolation/apoptosis with prostatic acinar apoptosis were noted, for which the relationship with test item cannot be excluded.

[4] = test system: cell line that harbors a TRIM33-RET fusion; test: Growth inhibition, TRIM33-RET fusion cell line; type: cell-based

## COCc1ccc(NC(=O)c2c(C#CCN3CCOCC3)n(C3(C)CC3)c3ncnc(N)c23)cc1 [HM06/TAS0953, 4-amino-N-(4-(methoxymethyl)phenyl)-7-(1-methylcyclopropyl)-6-(3-morpholinoprop-1-yn-1-yl)-7H-pyrrolo[2,3-d]pyrimidine-5-carboxamide]
[1]
  IC50: 0.03 µM
[2]; oral BID at the dose tested
  tolerability, percent body weight change: tolerated the compound well
[2]; oral, 50 mg/kg BID vs vehicle
  antitumor efficacy (luminescence): potent and stable effect
[2]; vs vehicle control group
  survival rate: higher survival rate
[3]; 15-45 mg/kg BID
  systemic exposure vs dose, AUC(0-t): increased slightly more than dose-proportionally
[3]; beagle, dog, in vivo, oral, post first daily dose
  Tmax: 1 to 8 h
[4]
  IC50: 0.006 µM
